Results from patent US20260027179A1, “ANTI-SYNUCLEINOPATHY PEPTIDE AND METHODS TO TREAT NEURODEGENERATIVE DISEASES” (University of British Columbia, priority 2021, published 2026).

Test system: dopaminergic neurons
Experiment: MPTP mouse model, dopaminergic neuronal damage (TH immunoblotting, TH immunohistochemistry)
Assay type: in vivo
Conditions: peptide 6 μmol/kg i.p. twice a day for 12 days
Method: C57BL/6 mice were i.p. injected with 30 mg/kg parkinsonian toxin MPTP (or saline as control), once per day for 5 consecutive days, to induce dopaminergic neuron damage. The effects of MPTP administration on mouse rotarod performance and damage to dopaminergic neurons were then analyzed 1 week after the last injection of MPTP. To determine the effect of α-synuclein knockdown in protecting dopaminergic neurons against MPTP, the Tat-βsyn-degron peptide or its control Tat-βsyn (6 μmol/kg; i.p.) was used in some animals twice a day for 12 days, beginning the first day of MPTP injection. […] The striatum is a region that receives dopaminergic neuronal projections from the substantia nigra and is also deeply affected in PD. Consistent with the specific neurotoxic effects of MPTP on dopaminergic neurons, in mice receiving MPTP injection alone there was a significant loss of protein TH in both dopaminergic neurons in the substantia nigra-containing ventral midbrain (FIGS. 6a and 6c) and dopaminergic neuronal terminals in the striatum (FIGS. 6d and 6f). […] As expected, the specific knockdown of α-synuclein by Tat-βsyn-degron protected against MPTP-induced dopaminergic neuronal injury (FIGS. 6c and 6f).
C57BL/6 mice (20-25 g) received intraperitoneal (i.p.) injection of 30 mg/kg parkinsonian toxin MPTP hydrochloride once a day for 5 days to induce dopaminergic neuron death in the substantia nigra, while the control mice received equal volumes of saline injection. 6 μmol/kg Tat-βsyn-degron peptide or control Tat-βsyn peptide was i.p. injected into the MPTP-treated mice every 12 hrs from the first day of MPTP injection until 7 days after the last injection of MPTP. All groups of mice then underwent a rotarod test before they were sacrificed.
Brain tissues or cultured cells were lysed on ice in the lysis buffer and then the solution was centrifuged at 14,000 rpm for 10 min at 4° C. Next, the supernatant was collected and protein concentrations were determined using a BCA protein assay kit (Thermo Scientific, 23227). Equal amount of protein samples was mixed with 4× sample buffer, boiled at 100° C. for 5 min, and separated on 10% sodium dodecyl sulphate-polyacrylamide gel electrophoresis (SDS-PAGE). Proteins were then transferred to Immobilon-PTM polyvinylidene fluoride (PVDF) membranes (Bio-Rad, 162-0177). The membranes were blocked with 5% non-fat milk in Tris-buffered saline containing 0.1% Tween-20 (TBST) for 1 hr at room temperature, and then incubated overnight at 4° C. with primary antibody. After washing 3×5 min in TBST, membranes were incubated with horseradish peroxidase-conjugated secondary antibody for 1 hr at room temperature. After another three washes with TBST, protein was visualized in the Bio-Rad Imager using ECL western blotting substrate (Pierce, 32016). The band density of each protein was quantified by the Bio-Rad Quantity One software and the relative optical density was analyzed relative to the loading control β-actin on the same membrane.
C57BL/6 mice were anesthetized with 1.5 g/kg urethane (Sigma, U2500) and then perfused with 0.9% saline and 4% paraformaldehyde. Brains were removed and fixed in 4% paraformaldehyde for 24 hrs before being transferred to 30% sucrose/PBS solution for cryoprotection. The brains were then sectioned into 30 μm slices using a Leica cryostat. After blocking and permeabilization using a PBS solution containing 1% BSA and 0.2% Triton X-100 for 30 min at room temperature, the brain slices were incubated with anti-TH antibody (1:800 dilution) for 3 days at 4° C. Finally, the TH-positive neurons in the substantia nigra and TH-positive neuronal terminals in the striatum were stained using the anti-mouse Ig HRP detection kit (BD Transduction Laboratories, 551011) according to manufacturer's instruction, and visualized under Zeiss Axio Observer D1 microscope. […]

[1] = MPTP 30 mg/kg x5 days, immunoblot

Sequence: YGRKKRRQRRRRTKSGVYLVGRRRG (The sequence is synthesized (YGRKKRRQRRRRTKSGVYLVGRRRG)) [Tat-βsyn-degron]
- TH protein level in striatum after MPTP [1]: protected against the MPTP-induced decrease in the level of TH protein
- TH protein level in ventral midbrain after MPTP [1]: protected against the MPTP-induced decrease in the level of TH protein
- MPTP-induced dopaminergic neuronal damage (overall, FIG. 6 and FIG. 7a-d): largely protected
- density of dopaminergic neuronal terminals in the striatum after MPTP (TH densitometry): protected against MPTP-induced decrease
- number of dopaminergic neurons in the substantia nigra pars compacta after MPTP (blinded TH neuron counting): protected against MPTP-induced decrease in the number of dopaminergic neurons
